Patent publication US9855242B2, “Composition for an immunomodulation” (Eberhard Karls Universität Tübingen Medizinische Fakultät, priority 2013, dated 2018)

Assays:
[1] = system: Human NK cells; experiment: CellTiterBlue viability measurement on human NK cells; assay type: cell-based; settings: 48 hours treatment; 6.25, 12.5, 25 or 50 μM of 6-PN or 8-PN, SAHA in low concentrations; versus untreated control; FIG. 2
Protocol: Human NK cells were treated for 48 hours with 6.25, 12.5, 25 or 50 μM of 6-PN or 8-PN. In the following a viability measurement was carried out (CellTiterBlue Viability Asasy, Promega, Madison, United States of America). The clinically used and established HDACi SAHA (Vorinostat) was used in low concentrations as a reference die for both natural HDACi 6-PN and 8-PN. Shown are the mean values with a standard deviation from three independent experiments with expanded NK cells from three healthy human donors. The horizontal continuous line visualizes the value of the untreated control; a decrease of the fluorescence signal means a reduction of the viability.

[2] = system: human hepG2 tumor cells; experiment: NK activity on HepG2 tumor cells by realtime cell monitoring (xCELLigence impedance); assay type: cell-based
Protocol: In a further experiment the NK activity on human hepG2 tumor cells by means of realtime cell monitoring (Roche Applied Sciences xCELLigence SP-System, Mannheim, Germany) was analyzed. […] The cellular impedance of the adherent tumor cells were measured as parameters for the cell status (cell number, viability, morphology, adhesion). As a positive control for the induction of cell death Triton X-100 was used. Three independent experiments with expanded NK cells from three healthy human donors were carried out. Shown are the average values with standard deviation of one exemplary experiment. The HepG2 tumor cells (target) were incubated at the start of the treatment (24 hours) with 25 μM of 6-PN or 8-PN or with NK cells (effector) (effector to target ratio (E:T)=1.25:1 or 2.5:1) or with the combination of HDACi and NK cells. The normalization happened at the start of the treatment and a decrease of the impedance (normalized cell index) means a reduction of the cell viability or the cell status, respectively.

[3] = system: PI (3) K/Akt signaling pathway; settings: MCF-7 cells in vitro; cited from earlier work
[4] = system: PBMCs of healthy donors; experiment: Metabolic activity of PBMCs, Promega CellTiter-Blue Assay; assay type: cell-based, human; settings: one time 12.5 μM or 25 μM; after 48 hours; FIG. 8A
Protocol: (§1) The result is shown in the FIG. 8: A PBMCs of two healthy donors were one time treated with 12.5 μM or 25 μM of 6-PN or 8-PN and examined after 48 hours. B NKL cells were one time treated with 12.5 μM or 25 μM of 6-PN or 8-PN and examined after 48 h. In both immune cell populations and in both treatments an increase of a metabolic activity can be detected; shown is the average value +/−SD.

[5] = system: Human NK cells; experiment: Overall survival of NK cells, trypan blue staining and daily microscopic counting; assay type: cell-based; settings: one time treatment with 6.25, 12.5, 25 or 50 μM; versus untreated control and SAHA treated cells; FIG. 3
Protocol: Human NK cells were treated with 6.25, 12.5, 25 or 50 μM of 6-PN or 8-PN. Subsequently via a tryptan blue staining and a daily microscopic counting in standardized C chip counter chambers the overall survival of NK cells was measured. As a reference dye again the HDACi SAHA (Vorinostat) was used. Shown is the average value with standard deviation from three independent experiments with expanded NK cells from three healthy human donors. The left arrow visualizes <10% of living cells in the SAHA treatment group; the right arrow visualizes <10% of living cells in the untreated control group.

[6] = system: histone deacetylases (HDACs) of classes I, II, and IV; settings: cited from earlier work
[7] = system: angiogenesis induced by the basic fibroblast growth factor and the vascular endothelial growth factor; settings: three dimensional collagen gel; bFGF and VEGF induced; cited from earlier work
[8] = system: Hep3B; experiment: NK activity on a further tumor cell line by realtime cell monitoring; assay type: cell-based; settings: compared with the HepG2 result
[9] = target: MRP1 (Homo sapiens, UniProt P33527); settings: cited from earlier work
Chain of MRP1 (P33527 whole entry): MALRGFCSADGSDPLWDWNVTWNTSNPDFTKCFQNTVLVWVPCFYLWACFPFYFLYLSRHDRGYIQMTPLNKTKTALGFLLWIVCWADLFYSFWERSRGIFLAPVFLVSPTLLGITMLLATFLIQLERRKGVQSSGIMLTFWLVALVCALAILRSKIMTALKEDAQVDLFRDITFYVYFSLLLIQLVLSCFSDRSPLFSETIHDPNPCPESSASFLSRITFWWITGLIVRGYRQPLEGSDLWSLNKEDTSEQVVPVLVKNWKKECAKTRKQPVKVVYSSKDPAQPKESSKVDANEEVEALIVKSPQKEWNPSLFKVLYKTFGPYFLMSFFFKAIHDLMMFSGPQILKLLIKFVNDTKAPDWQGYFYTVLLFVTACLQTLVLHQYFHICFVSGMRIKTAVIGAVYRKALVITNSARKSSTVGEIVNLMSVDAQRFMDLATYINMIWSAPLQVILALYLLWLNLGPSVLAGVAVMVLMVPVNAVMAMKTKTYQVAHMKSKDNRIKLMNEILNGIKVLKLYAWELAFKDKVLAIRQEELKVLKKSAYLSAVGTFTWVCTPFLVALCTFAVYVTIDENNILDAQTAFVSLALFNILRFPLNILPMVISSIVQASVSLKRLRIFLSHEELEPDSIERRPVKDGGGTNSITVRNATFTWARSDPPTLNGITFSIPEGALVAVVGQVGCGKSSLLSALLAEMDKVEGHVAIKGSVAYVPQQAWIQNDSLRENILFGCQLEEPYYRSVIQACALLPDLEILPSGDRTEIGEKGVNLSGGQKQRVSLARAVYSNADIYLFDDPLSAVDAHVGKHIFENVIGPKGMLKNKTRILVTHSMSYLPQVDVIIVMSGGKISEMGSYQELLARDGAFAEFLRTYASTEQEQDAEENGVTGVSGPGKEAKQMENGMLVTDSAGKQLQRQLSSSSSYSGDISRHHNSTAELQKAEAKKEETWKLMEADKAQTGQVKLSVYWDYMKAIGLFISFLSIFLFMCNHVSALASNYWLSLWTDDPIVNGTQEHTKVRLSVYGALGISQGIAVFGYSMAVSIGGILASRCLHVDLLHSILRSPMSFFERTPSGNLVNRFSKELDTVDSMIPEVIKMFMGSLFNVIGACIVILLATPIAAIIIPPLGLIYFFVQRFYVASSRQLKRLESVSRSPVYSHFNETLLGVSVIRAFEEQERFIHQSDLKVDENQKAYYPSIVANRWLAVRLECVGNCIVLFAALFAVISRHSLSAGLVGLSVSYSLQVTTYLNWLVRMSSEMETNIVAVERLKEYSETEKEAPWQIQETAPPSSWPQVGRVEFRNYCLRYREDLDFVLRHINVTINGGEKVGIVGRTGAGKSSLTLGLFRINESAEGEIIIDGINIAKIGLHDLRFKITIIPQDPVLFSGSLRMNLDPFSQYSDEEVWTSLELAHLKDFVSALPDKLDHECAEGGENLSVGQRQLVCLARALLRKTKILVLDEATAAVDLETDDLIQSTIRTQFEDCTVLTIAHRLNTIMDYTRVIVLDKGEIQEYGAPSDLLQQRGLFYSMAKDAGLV

[10] = system: MCF7 cells; settings: cited from earlier work
[11] = system: DU145; settings: in vitro; cited from earlier work
[12] = system: PBMCs of healthy donors; experiment: PBMC viability with automated cell counting device (NC-250); assay type: cell-based, human; settings: one time 12.5 μM or 25 μM; daily over 336 hours; FIG. 7
Protocol: The result is shown in the FIG. 7: PBMCs of three healthy donors were one time treated with 12.5 μM or 25 μM of 6-PN or 8-PN and subsequently on a daily basis at independent points in time examined by means of a nucleo counter NC-250 cell counting device with respect to viability over a time period of 336 hours; shown is the average value +/−SD.

[13] = system: angiogenesis; settings: chorioallantois membrane assays; cited from earlier work
[14] = system: NK cells of healthy donors; experiment: NK cell viability with automated cell counting device (NC-250); assay type: cell-based, human; settings: one time 12.5 μM or 25 μM; daily over 336 h; FIG. 6
Protocol: The examination therefore is independent from the experimentator. NK cells of two healthy donors were one time treated with 12.5 μM or 25 μM of 6-PN or 8-PN, respectively, and subsequently two independent points in time on a daily basis examined by means of a nucleo counter NC-250 cell counting device with respect to viability over a time period of 336 h; shown is the average value +/−SD.

[15] = system: estrogen receptors of the uterus of rats; settings: cited from earlier work
[16] = target: P glycoprotein (Homo sapiens, UniProt P08183); settings: cited from earlier work
Chain of P glycoprotein (P08183 whole entry): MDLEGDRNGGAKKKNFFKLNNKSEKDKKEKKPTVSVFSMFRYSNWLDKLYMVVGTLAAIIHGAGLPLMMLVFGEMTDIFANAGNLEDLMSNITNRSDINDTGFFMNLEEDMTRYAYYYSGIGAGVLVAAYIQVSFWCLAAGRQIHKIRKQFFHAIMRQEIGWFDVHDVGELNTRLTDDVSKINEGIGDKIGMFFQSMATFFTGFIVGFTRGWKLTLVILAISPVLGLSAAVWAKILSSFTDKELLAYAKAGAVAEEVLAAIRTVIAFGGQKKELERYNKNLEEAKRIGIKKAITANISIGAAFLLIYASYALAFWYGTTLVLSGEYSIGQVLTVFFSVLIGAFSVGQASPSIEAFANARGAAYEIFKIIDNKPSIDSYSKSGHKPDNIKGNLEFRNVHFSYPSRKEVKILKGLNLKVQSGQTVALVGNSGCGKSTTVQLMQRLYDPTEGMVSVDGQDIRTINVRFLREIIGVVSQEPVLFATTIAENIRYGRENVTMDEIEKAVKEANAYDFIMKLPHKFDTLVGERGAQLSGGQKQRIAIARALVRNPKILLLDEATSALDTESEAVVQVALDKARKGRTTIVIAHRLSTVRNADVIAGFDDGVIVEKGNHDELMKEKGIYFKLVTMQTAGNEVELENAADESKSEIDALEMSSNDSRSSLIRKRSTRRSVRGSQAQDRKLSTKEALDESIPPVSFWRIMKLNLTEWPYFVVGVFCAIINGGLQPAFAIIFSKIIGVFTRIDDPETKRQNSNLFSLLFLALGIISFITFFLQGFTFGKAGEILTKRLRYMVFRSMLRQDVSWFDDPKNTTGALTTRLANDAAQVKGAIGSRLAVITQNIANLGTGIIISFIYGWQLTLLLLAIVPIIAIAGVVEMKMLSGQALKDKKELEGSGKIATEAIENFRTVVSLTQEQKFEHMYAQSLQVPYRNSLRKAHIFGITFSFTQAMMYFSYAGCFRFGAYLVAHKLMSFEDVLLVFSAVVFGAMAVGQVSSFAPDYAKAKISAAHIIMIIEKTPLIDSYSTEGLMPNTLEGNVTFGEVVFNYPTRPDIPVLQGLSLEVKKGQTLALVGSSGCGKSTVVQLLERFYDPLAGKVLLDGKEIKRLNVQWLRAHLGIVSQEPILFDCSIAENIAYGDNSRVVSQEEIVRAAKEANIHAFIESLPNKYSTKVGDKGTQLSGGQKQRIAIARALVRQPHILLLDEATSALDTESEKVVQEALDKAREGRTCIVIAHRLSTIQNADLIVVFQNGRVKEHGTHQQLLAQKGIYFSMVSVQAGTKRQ

[17] = system: melanoma tumor cells with adherent immune cells; experiment: Primary patient material: melanoma tumor cells with adherent immune cells, tumor cell count; assay type: cell-based, human; settings: 12.5 μM or 25 μM; 48, 72, and 96 hours after the start of the treatment; **P<0.01; FIG. 5
[18] = system: NK cell line NKL; experiment: Metabolic activity of NKL cells, Promega CellTiter-Blue Assay; assay type: cell-based; settings: one time 12.5 μM or 25 μM; after 48 h; FIG. 8B
Protocol: as §1

[19] = system: PC-3; settings: in vitro; cited from earlier work

SMILES | viability of human NK cells [1] | activity of the human NK cells over human tumor cells (normalized cell index) ([2]; 25 μM with NK cells, E:T 1.25:1 or 2.5:1, FIG. 4) | sensitivity of HepG2 tumor cells against the compound ([2]; compound without NK cells) | activation of the PI (3) K/Akt signaling pathway [3] | metabolic activity of PBMCs [4] | survival rate of the NK cells [5] | inhibition of histone deacetylases (HDACs) of classes I, II, and IV [6] | angiogenesis in vitro [7] | activity of NK cells on further tumor cell line [8] | inhibition of MRP1 [9] | apoptosis in MCF7 cells [10] | antiproliferative effects on DU145 [11] | viability of PBMCs of healthy donors [12] | angiogenesis in vivo [13] | viability of NK cells of healthy donors [14] | binding affinity for estrogen receptors [15] | inhibition of the P glycoprotein [16] | quantitative evaluation of the tumor cells (melanoma cells) [17] | metabolic activity of NKL cells [18] | antiproliferative effects on PC-3 [19]
O=C(CCCCCCC(=O)Nc1ccccc1)NO [SAHA, reference compound] | significant decrease of the viability |  |  |  |  |  |  |  |  |  |  |  |  |  |  |  |  |  |  | 
CC(C)=CCc1c(O)cc(O)c2c1OC(c1ccc(O)cc1)CC2=O (stereo not drawn) [8-PN, 5,7-dihydroxy-2-(4-hydroxy-phenyl)-8-(3-methyl-but-2-enyl)-chroman-4-one] | in parts significant increase of the viability | increased activity of the human NK cells | low sensitivity | directly inhibits the activation | increase the metabolic activity | significantly increased | distinct inhibitors | inhibits the angiogenesis | equivalent results | inhibition | induces furthermore the apoptosis | antiproliferative effects | increase/extend viability | inhibits the angiogenesis | increase/extend the viability | strong binding affinity | inhibition | significant decrease of the melanoma cells | increase the metabolic activity | antiproliferative effects
